According to patent US20210029993A1, “SPATIAL INHIBITORS, DETERRENTS AND REPELLENTS FOR MOSQUITOES AND MIDGES” (BEDOUKIAN RESEARCH, INC., priority 2005, published 2021):

Columns and labels:
mosquitoes [1] = test: Limonene tested against mosquitoes (background); format: in vivo; settings: background statement
mosquitoes [2] = test: Spatial inhibition of mosquitoes, outdoor Mosquito Magnet Liberty Plus trap catch; format: in vivo; settings: two grams of test compound on absorbent material in CO2 and r-octenol stream of trap; 2-5 days; FIG. 5
Procedure: Two grams of test compound was absorbed onto pieces of absorbent material. These pieces of absorbent material (fragrance release material from Rhopore Inc.) containing absorbed test compound were then placed in a stream of CO2 and r-octenol being released from an American Biophysics Mosquito Magnet Liberty Plus mosquito trap designed to attract mosquitoes. The test were rotated over a period of 2-5 days in such a manner that both control (trap without test compound) and test compound were tested an equal number of times in each trap employed. The number of mosquitoes caught in the traps with test compounds was compared to the number of mosquitoes caught in the trap with no test compound material present. […] Thus, a lowered percentage is indicative of the increasing ability of the test compounds to inhibit the ability of the mosquitoes sense the target. […] In Table 3, weight percent (wt %) refers to the weight of the deterring/repelling/inhibiting compound, or combination of compounds, in the composition used in the tests. In the “Percent Caught Relative to Control” column in Table 3, a lower percentage is indicative of the increasing ability of the test compounds to inhibit the ability of the mosquitoes sense the target. The weight ratio of the compounds in the combination of compounds is given in parentheses in the “Compound(s)” column of Table 3.

[3] = test system: female mosquitoes (Aedes aegypti); test: Mosquitoes feeding test (Plexiglas module, treated membrane over dyed sucrose/ATP solution); format: in vivo; settings: feeding relative to control, FIGS. 1 and 3
Procedure: (§1) The test was conducted at 0900-2100 hours in a walk-in incubator (26° C., 63-80% RH) illuminated by fluorescent lights. Mosquitoes were tested in a two-piece Plexiglas module designed to assess their response to feeding deterrents. The bottom piece of the module was 40×7×4-cm hollow platform supporting six circular wells (diameter=3.8 cm, depth=6 mm). Water (40° C.) flowed through the central cavity of the platform at a rate of 215 ml/min. The top piece of the module consisted of six 4.5×4.0×5.0 cm chambers, the floors of which were fitted with a sliding door positioned over a circular opening 3.5 cm in diameter. Mosquitoes were introduced through an aperture 1 cm in diameter on the front wall of the chambers. For each test, five female mosquitoes (Aedes aegypti) were aspirated into each of five chambers of the top module piece and the apertures were plugged with corks wrapped in plastic film. The wells on the bottom piece of the module were filled with 7 ml of 10% sucrose solution containing ATP (2.9 mg/ml). To each well, 75 μl of green dye (McCormick Food, Hunt Valley, Md.) were added so that those mosquitoes imbibing the sugar solution could be identified when crushed at the end of the tests. Each membrane received 50 ul of acetone or experimental compound solution, applied to 9.6 cm^2 circular area on 0.1 mm-thick membranes made of nylon mesh in a silicone matrix. The membranes were then placed over each well in contact with the sugar solution.
(§2) The circular openings on the floor of each chamber of the top piece of the module were aligned with each membrane-covered well of the bottom piece. The sliding floors of the chambers were then opened allowing mosquitoes access to the membranes. The number of mosquitoes landing on the membranes, and those flying within the apparatus, were recorded each minute for five minutes. After five minutes, any mosquitoes remaining on the membranes were removed with a metal wire, and the door of the floor of each chamber was closed. The top piece of the module was then placed into a freezer for 20 minutes. In the test designed to assess feeding, mosquitoes were removed from the frozen module, crushed on white paper towels, and examined for the presence of green dye to indicate that feeding had occurred. The proportions of mosquitoes feeding per trial were analyzed using a standard generalized linear model with a logit link. Landing and flying scores are repeated measures; five reading were obtained for groups of five mosquitoes. Thus, to maintain independence among the data, the five readings were summed, and then the sums divided by 25 (the maximum score in each category) to create proportions of mosquitoes landing and flying. The proportions were then transferred using the standard variance stabilizing transformation for proportions (sin^−1 √y, where y is the proportion), and analyzed using ANOVA (Analysis of Variables)
In Table 1, weight percent (wt %) refers to the weight of the deterring/repelling/inhibiting compound, or combination of compounds, in the composition used in the tests. […] The weight ratio of the compounds in the combination of compounds is given in parentheses in the “Compound(s)” column of Table 1.

[4] = test system: female mosquitoes (Aedes aegypti); test: Mosquitoes flying test (Plexiglas module, mosquitoes flying within the apparatus); format: in vivo; settings: flying relative to control, FIGS. 2 and 4
Procedure: as §1, §2
In Table 2, weight percent (wt %) refers to the weight of the deterring/repelling/inhibiting compound, or combination of compounds, in the composition used in the tests. […] The weight ratio of the compounds in the combination of compounds is given in parentheses in the “Compound(s)” column of Table 2.

[5] = test system: mosquitoes and biting midges; settings: related art; cited from earlier work

C=C(C)C1CC=C(C)CC1 (stereo not drawn) [limonene]
repellent or spatial inhibitor efficacy against mosquitoes, in words (mosquitoes [1]): not found to be either an effective repellent or spatial inhibitor

cis and trans carveol
percent mosquitoes caught relative to the control (relative catch) (mosquitoes [2]): about 43%
contact mosquito repellent activity (feeding tests, FIGS. 1 and 3), in words [3]: especially effective as contact mosquito repellents

(+)/(−) limonene oxide
spatial inhibitor activity for mosquitoes (flying tests, FIGS. 2 and 4), in words [4]: particularly effective as spatial inhibitors for mosquitoes
contact mosquito repellent activity (feeding tests, FIGS. 1 and 3), in words [3]: especially effective as contact mosquito repellents

C=CC(C)(O)CCC=C(C)C (stereo not drawn) [linalool]
spatial inhibitor efficacy, in words [5]: act as spatial inhibitors
